{"source": "patent US6890906B2", "about": "“Method for controlling angiogenesis in animals” (Glycogenesys, Inc., priority 2001, dated 2005)", "key": {"[1]": {"tested_on": "human umbilical vein endothelial cells (HUVEC)", "test": "Inhibition of VEGF-induced HUVEC cell migration by modified pectin in transwell plate", "type": "cell-based", "settings": "VEGF 30 ng/ml Only (positive control, no GCS-100)", "experimental": "Following incubation, the membranes were fixed and stained. […] Three runs were made.\nThe material comprised a modified pectin which is commercially available from GlycoGenesys, Inc. of Boston, Mass., under the designation GCS-100. In this experimental series, HUVEC cells were incubated in a transwell plate with VEGF, and varying concentrations of the therapeutic material, under conditions as described hereinabove. The concentration of VEGF was 30 ng/ml. In one group of experiments, cells were incubated with VEGF in the absence of the carbohydrate material, and these experiments served as a positive control. In another group of experiments, cells were incubated with growth medium and no VEGF or therapeutic carbohydrate, and this group served as a negative control. In the remaining experiments, concentrations of the GCS-100 ranging from 0.001% to 0.1% were employed."}, "[2]": {"tested_on": "human umbilical vein endothelial cells (HUVEC)", "settings": "for AVERAGE cell count: average of runs; for Cell count (cells that migrated through the membrane): single runs, 4 hours, 37° C.", "experimental": "In a first portion of the experimental series, the effect of the chemoattractant vascular endothelial growth factor (VEGF) on human umbilical vein endothelial cells (HUVEC) was quantified. The experiment was carried out in a transwell plate, and in preparation therefor, HUVEC cells were grown to approximately 80% confluency. The cells were suspended in basal media and placed in a transwell plate on fibronectin coated membrane inserts at 50,000 cells per insert. Varying concentrations of VEGF were added to the bottom chamber of the transwell plate, and the plates incubated for 4 hours at 37° C. with a 5% CO2 atmosphere. Following incubation, the membranes were fixed and stained. Nonmigrated cells were removed by mechanical abrasion and cells that migrated through the membrane were counted. […] Three runs were made."}}, "note": "Where “and” joins values, the source holds several entries; their conditions need not be identical. Identical values can stand only once. Like-named read-outs stand apart in the source and are kept apart here.", "data": [{"substance": "vascular endothelial growth factor [VEGF]", "values": [{"measurement": "AVERAGE cell count", "setting": "[1]; average", "value": 1244}, {"measurement": "Cell count (migrated cells)", "setting": "[1]; single runs", "value": "1322 and 1167"}, {"measurement": "AVERAGE cell count", "setting": "[2]; 1 ng/ml VEGF", "value": 734}, {"measurement": "Cell count (cells that migrated through the membrane)", "setting": "[2]; 1 ng/ml VEGF", "value": "607 and 766 and 830"}, {"measurement": "AVERAGE cell count", "setting": "[2]; 3 ng/ml VEGF", "value": 1043}, {"measurement": "Cell count (cells that migrated through the membrane)", "setting": "[2]; 3 ng/ml VEGF", "value": "950 and 1136"}, {"measurement": "AVERAGE cell count", "setting": "[2]; 10 ng/ml VEGF", "value": 1218}, {"measurement": "Cell count (cells that migrated through the membrane)", "setting": "[2]; 10 ng/ml VEGF", "value": "1144 and 938 and 1573"}, {"measurement": "AVERAGE cell count", "setting": "[2]; 30 ng/ml VEGF", "value": 1162}, {"measurement": "Cell count (cells that migrated through the membrane)", "setting": "[2]; 30 ng/ml VEGF", "value": "898 and 1448 and 1140"}, {"measurement": "AVERAGE cell count", "setting": "[2]; 100 ng/ml VEGF", "value": 1210}, {"measurement": "Cell count (cells that migrated through the membrane)", "setting": "[2]; 100 ng/ml VEGF", "value": "1650 and 901 and 1078"}, {"measurement": "chemotactic effect", "setting": "[2]; VEGF concentrations of 10-30 ng/ml", "value": "strong chemotactic effect"}]}]}
